Laboratory results as given in patent US20240009157A1 (PriZm, LLC, priority 2022, published 2024).

What was measured:
[1] = ambient temperature and light; cited from earlier work
[2] = tested on: MCT8 mutant (mct8−/−) zebrafish; settings: cited from earlier work
[3] = tested on: MCT8-deficient (knockout) mice (Mct8KO); settings: cited from earlier work
[4] = tested on: pediatric patient suffering from Allan-Herndon-Dudley Syndrome; assay: Dosing regimen for a pediatric subject, T3 serum levels; assay type: in vivo, human
Description: Following the first 2 weeks, the daily dosage was increased to 2 mg/kg/day for 2 additional weeks. […] Following the first 2 weeks, the daily dosage was increased to 2 mg/kg/day for 2 additional weeks. […] Following the first 2 weeks, the daily dosage was increased to 2 mg/kg/day for 2 additional weeks.

child having a G-tube = assay: Effect of DITPA on removal of G-tube; assay type: in vivo, human; settings: one child who started DITPA while having a G-tube
pediatric subjects = settings: human, in vivo; cited from earlier work

O=C(O)CCc1cc(I)c(Oc2ccc(O)cc2)c(I)c1 [DITPA, 3,5-diiodothyropropionic acid]
stability [1]: stable at ambient temperature and light
hypomyelination in the CNS [2]: SRW101 and other TH analogs partially rescued the hypomyelination
MCT8 dependence of entry into the brain [3]: independent for entry into the brain
TH deficit [3]: corrects the TH deficit
measurements and other parameters of TH action [3]: showed that SRW101 normalized all measurements and other
thyrotoxic effect in the liver [3]: Mct8KO mice without causing thyrotoxic effect in the liver (Di
thyrotoxic state in the liver (analysis of TH target genes) [3]: amelioration of the thyrotoxic state in the liver (ameliorating
T3 serum levels above normal ([4]; 1 mg/kg/day for 2 weeks, then 2 mg/kg/day for 2 additional weeks, above normal): more than 15%
T3 serum levels below normal ([4]; 1 mg/kg/day for 2 weeks, then 2 mg/kg/day for 2 additional weeks, below normal): more than 15%
T3 serum levels upon reassessment ([4]; after 1.0 mg/kg/day for 28 days): normal
T3 serum levels upon reassessment ([4]; after 1.5 mg/kg/day for 28 days): normal
T3 serum levels upon reassessment, below normal ([4]; after 1.5 mg/kg/day for 28 days, below normal): more than 15%
T3 serum levels upon reassessment ([4]; after 2.5 mg/kg/day for 28 days): normal
G-tube (child having a G-tube): g-tube was removed
body weight (child having a G-tube): gained weight

O=C(O)Cc1cc(I)c(Oc2ccc(O)c(I)c2)c(I)c1 [TRIAC, triiodothyroacetic acid]
effects in pediatric subjects (pediatric subjects): subjects with positive effects.
